Key:
Type in all cases: in vivo, rat
[1] = tested on: Male Wistar rats; test: Y-maze short term memory test (spontaneous alternation), MK-801 induced memory loss
Method: (§1) Male Wistar rats were purchased from Taconic, Denmark. Animal weight was close to 300 g. The animals were singly housed. Food and water was available ad libitum.
Spontaneous alternation. A Y-maze was used to assess (without food deprivation or other aversive procedures) the normal navigation behaviors of rodents. All arm entries are sequentially scored so that the total number of arm entries, as well as the sequence of entries, are recorded. Data are analyzed to determine the number of arm entries without repetition.
On the day of testing, the rats are given subcutaneous injection of either vehicle (n=9), 0.1 mg/kg MK-801 (n=8) or 0.1 mg/kg MK-801 (also known as Dizocilpine) and the CPT-1 inhibitor Etomoxir 1 mg/kg (1 mg/ml etomoxir ester dilution in olive oil, n=5) 1 hour before the testing (to avoid the MK-801 induced hyperactivity).

[2] = tested on: Male Wistar rats; test: Passive avoidance test (long term memory), MK-801 induced memory loss; conditions: retention test 24 h later
Text: as §1
In order to test long term memory, a passive avoidance apparatus was used. The passive avoidance apparatus consist of 2 compartments: a white compartment and a black compartment, which are separated by guillotine doors. There is a lamp hanging 10 cm above the white compartment and there is a lid covering the black compartment. The black compartment contains a stainless steel grid floor.
The test was performed in the lab where the rats normally live, and all the rats were present in the room all the time during the experiment. The apparatus was placed a little bit above the floor on 2 cages. The electrical current strength was adjusted to 0.36 mA and the duration was 5 sec. […] All the rats are weighted one day before the experiment, the concentration of MK-801 per mean body weight is calculated and the dilutions are prepared
The rats are given subcutaneous injection of either vehicle (n=4), 0.1 mg/kg MK-801 (n=8) or 0.1 mg/kg MK-801 and etomoxir 1 mg/kg (1 mg/ml etomoxir ester dilution in olive oil, n=10) 1 hour before the training (to avoid the MK-801 induced hyperactivity). […] After 20 sec the doors are lifted and the time to enter the black compartment is measured. […]

[3] = tested on: Male Wistar rats; test: Chronic mild stress (CMS) model of depression, sucrose consumption test; conditions: 4 mg/kg etomoxir in oil i.p. daily
Text: For a prolonged period rats are submitted to a succession of mild stressors. Consequently rats enter a depression-like state (anhedoina), however, upon concomitant treatment with antidepressants a fraction of rats recovers over time (Jayatissa et al., 2006). Time point of onset of antidepressant action correlates well to therapeutic action in the clinic and also drug efficacy, measured as a reduction in number of rats resistant to drug treatment, is addressed in the model. Male Wistar rats were purchased from Taconic, Denmark. Animal weight was close to 200 g when adaptation for sucrose consumption was initiated, and approximately 350 g at the start of stress regime. The animals were singly housed, except when grouping was applied as a stress parameter. Food and water was available ad libitum except when food or/and water deprivation was applied as a stress parameter. The standard 12-h light/dark cycle was only changed in course of stress regime. The animals were first trained to consume a palatable sucrose solution (1.5%). The training lasted 5 weeks. In this period the sucrose test was made twice a week during the first 3 weeks and once a week during the last two weeks. […] Percentage well being is calculated as follows: Test=Average Sucrose consumption animals in test group Control=Average Sucrose used animal control group Percentage well being=(Test/control)×100%

## C[C@]12N[C@H](Cc3ccccc31)c1ccccc12 [MK-801]
[1]; 0.1 mg/kg MK-801 + vehicle s.c., 1 hour before testing, n=8
  highest Y-maze score in the group: 66%
[2]; 0.1 mg/kg MK-801 s.c. 1 hour before training, n=8
  animals with measurable long term memory: None

## CCOC(=O)C1(CCCCCCOc2ccc(Cl)cc2)CO1 (centres unmarked) [Etomoxir, 2-(6-(4-chlorophenoxy)hexyl)oxirane-2-carboxylic acid ethyl ester]
[1]; Etomoxir 1 mg/kg s.c. with 0.1 mg/kg MK-801, 1 hour before testing
  Y-maze scores of the animals with nearly perfect memory: 92-100%
[1]; Etomoxir 1 mg/kg s.c. with 0.1 mg/kg MK-801, 1 hour before testing, n=5
  animals with nearly perfect memory: Sixty
[1]; one subcutaneous injection, Etomoxir 1 mg/kg with 0.1 mg/kg MK-801, 1 hour before testing, FIG. 2
  effect on the induced loss of short term memory: restore the loss of short term memory
[2]; one subcutaneous injection, etomoxir 1 mg/kg with 0.1 mg/kg MK-801, 1 hour before training, n=10, FIG. 3
  animals with restored long term memory: 40%
[3]; stressed rats n=20, FIG. 6
  animals responding to the treatment (at least 90% of pre-stress sucrose consumption): about 70%
[3]; stressed rats, earliest time point measured, FIG. 5
  time of treatment until animals responded like normal non-depressed animals (percentage well being, sucrose consumption): ≤ 1 week

Source: patent US8741949B2, “Inhibitors of carnitin-palmitoyl-tranferase-1 for the treatment and prevention of disorders caused by delipidation of neural tissue” (Meta-IQ ApS, priority 2008, dated 2014)
